The test system of experiment [1] is PBMC from newly diagnosed / untreated CD children. As to conditions: Liu et al.; cited from earlier work.
Experiment [2] relates to PBMC (polyclonal gluten-specific T cells) of paediatric and adult CD patients. Nature of the experiment: IFN-γ ELISpot of PBMC after 3 day oral wheat challenge (SFU, % of maximal peptide response, dominance scores, EC50; Examples 5-6). In kind it is cell-based, human. As to conditions: for Dominance score 3-5yrs (n = 9): CD children 3-5yrs, n = 9, following wheat challenge; for Dominance score 3-5yrs (n = 9) / Dominance score 6-10yrs (n = 10) / Dominance score 11-18yrs (n = 11): mean percentage of maximal peptide response; for Dominance score 6-10yrs (n = 10): CD children 6-10yrs, n = 10, following wheat challenge; for Dominance score 11-18yrs (n = 11): CD children 11-18yrs, n = 11, following wheat challenge; for Dominance score Mean all ages: CD children, following wheat challenge (Table 9); for Dominance scores 3-5 yrs: children with celiac disease 3-5 yrs after wheat challenge (Table 14); for Dominance scores 6-10 yrs: children with celiac disease 6-10 yrs after wheat challenge (Table 14); for Dominance scores 11-18 yrs: children with celiac disease 11-18 yrs after wheat challenge (Table 14); for Dominance scores Mean all ages: mean of all subjects (Table 14).

The test system is the same in experiment [3]. As to conditions: corresponding adult data shown for comparison (14); cited from earlier work.

Here are results for 4 substances from patent US20170232083A1, “METHODS OF DIAGNOSIS AND TREATMENT OF CELIAC DISEASE IN CHILDREN” (priority 2014, published 2017).

Take PFPQPELPY [DQ2.5-glia-α1a]: in experiment [1], the “individual CD children with responses” value is given as 3/10.

In the case of PQPELPYPQ [DQ2.5-glia-α2], in experiment [1], the “individual CD children with responses” value is 0/10.

W26 (PFPLQPEQPFPQP) [Peptide W26]: in experiment [2], the “Dominance score 3-5yrs (n = 9)” value is listed as 39.4, the “Dominance score 6-10yrs (n = 10)” value amounted to 61.6, the “Dominance score 11-18yrs (n = 11)” value came to 35.0 and the “Dominance score Mean all ages” value was 45.8. In experiment [2], the “Dominance scores 3-5 yrs” value is 46, the “Dominance scores 6-10 yrs” value stood at 62, the “Dominance scores 11-18 yrs” value stood at 35 and the “Dominance scores Mean all ages” value was found to be 47. Moreover, the “Dominance scores 18+ yrs” value in experiment [3] is recorded as 0.

For the substance W32 (PFPEQPEQPFPQP) [Peptide W32], in experiment [2], the “Dominance score 3-5yrs (n = 9)” value was determined as 26.9, the “Dominance score 6-10yrs (n = 10)” value came out at 34.4, the “Dominance score 11-18yrs (n = 11)” value came out at 28.2 and the “Dominance score Mean all ages” value is 30.2. Besides, in experiment [2], the “Dominance scores 3-5 yrs” value is on record as 26, the “Dominance scores 6-10 yrs” value turned out to be 34, the “Dominance scores 11-18 yrs” value came out at 28 and the “Dominance scores Mean all ages” value was determined as 30. Further, the “Dominance scores 18+ yrs” value in experiment [3] is recorded as 0.
